Results from patent publication US11696913B2, “Prolonged ectoparasite-controlling agent for animal” (MITSUI CHEMICALS AGRO, INC., priority 2017, dated 2023).

Legend:
Amblyomma americanum = assay: In vitro contact test with hard ticks (Amblyomma americanum nymphs); conditions: read-out: acaricidal activity; for pest or weed control at 0.2 µg/cm2, 0.2 µg/cm2: dose 0.2 μg/cm^2, 48 h; for pest or weed control at 1 µg/cm2, 1 µg/cm2: dose 1 μg/cm^2, 48 h
Outline: (§1)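 Acaricidal activity = % ticks dead or moribund after 48 h contact with acetone-deposited compound on vial walls (e.g., 900 ppm solution → 5 μg/cm^2). Ambient conditions for R. sanguineus, 21° C./85% rel. hum. for other species; heat challenge at 45-50° C. separated climbers from moribund ticks.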

Spodoptera litura = assay: Insecticidal testing against common cutworm; format: in vivo; conditions: foliar, 144 h, concentration 100 ppm, cabbage leaf dip, second-stage larvae, after 6 days, read-out: pesticidal rate
Excerpt: Insecticidal Testing Against Common Cutworm (Spodoptera litura)

Ctenocephalides felis [1] = assay: In vitro contact test with fleas; conditions: read-out: insecticidal activity; for pest or weed control at 0.04 µg/cm2, 0.04 µg/cm2: dose 0.04 μg/cm^2, dead or moribund fleas after 48 h; for pest or weed control at 0.2 µg/cm2, 0.2 µg/cm2: dose 0.2 μg/cm^2, dead or moribund fleas after 48 h; for pest or weed control at 1 µg/cm2, 1 µg/cm2: dose 1 μg/cm^2, dead or moribund fleas after 48 h
Outline: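 Activity is the percentage of fleas dead or moribund at 48 h, judged by immobility or uncoordinated movement after tapping. Tubes were coated by evaporating acetone solutions (900 ppm gives 5 μg/cm^2), then held 5-10 adult fleas of both sexes at room temperature and ambient humidity.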

[2] = tested on: Rhipicephalus (Boophilus) microplus; assay: In vitro injection test with Rhipicephalus (Boophilus) microplus (BOOPMI Inj); conditions: 168 h, laid fertile eggs after 7 days, read-out: acaricidal activity; for pest or weed control at 32 ng: dose 0.032 μg/animal injected; for pest or weed control at 0.00016 mg: dose 0.16 μg/animal injected; for pest or weed control at 0.0008 mg: dose 0.8 μg/animal injected
Outline: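 Five engorged adult females each get a 1 μl abdominal injection of compound dissolved and diluted in DMSO. Kept 7 days at 28° C./85% rel. hum.; percent activity rates egg laying and egg fertility (0% all fertile, 100% none laid or infertile).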

Laodelphax striatellus = assay: Insecticidal testing against small brown planthopper; format: in vivo; conditions: 144 h, concentration 100 ppm, sprayed rice seedlings, after 6 days, read-out: pesticidal rate
Outline: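 Acetone solution of compound at a set concentration sprayed onto rice seedlings, air-dried, then exposed to 10 planthoppers (one group). Held at 25° C; survival rate recorded after 6 days.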

Rhipicephalus sanguineus = assay: In vitro contact test with adult hard ticks (Rhipicephalus sanguineus); conditions: read-out: acaricidal activity; for pest or weed control at 0.2 µg/cm2, 0.2 µg/cm2: dose 0.2 μg/cm^2, 48 h; for pest or weed control at 1 µg/cm2, 1 µg/cm2: dose 1 μg/cm^2, 48 h
Outline: as §1

Ixodes ricinus = assay: In vitro contact test with adult hard ticks (Ixodes ricinus); conditions: read-out: acaricidal activity; for pest or weed control at 0.2 µg/cm2, 0.2 µg/cm2: dose 0.2 μg/cm^2, 48 h; for pest or weed control at 1 µg/cm2, 1 µg/cm2: dose 1 μg/cm^2, 48 h; for pest or weed control at 5 µg/cm2, 5 µg/cm2: dose 5 μg/cm^2, 48 h
Outline: as §1

Dermacentor variabilis = assay: In vitro contact test with adult hard ticks (Dermacentor variabilis); conditions: read-out: acaricidal activity; for pest or weed control at 0.04 µg/cm2, 0.04 µg/cm2: dose 0.04 μg/cm^2, 48 h; for pest or weed control at 0.2 µg/cm2, 0.2 µg/cm2: dose 0.2 μg/cm^2, 48 h; for pest or weed control at 1 µg/cm2, 1 µg/cm2: dose 1 μg/cm^2, 48 h
Outline: as §1

Ctenocephalides felis [3] = assay: Ctenocephalides felis in-vitro feeding test with fleas (CTECFE oral); conditions: 48 hours, read-out: insecticidal feeding activity; for pest or weed control at 0.16 ppm: dose 0.16 ppm in citrated cattle blood; for pest or weed control at 0.8 ppm: dose 0.8 ppm in citrated cattle blood; for pest or weed control at 4 ppm: dose 4 ppm in citrated cattle blood; for pest or weed control at 0.032 ppm: dose 0.032 ppm in citrated cattle blood
Outline: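 Scored as percent fleas killed (0–100%) 48 hours after feeding began. Compound, dissolved in DMSO and diluted into citrated cattle blood, was offered via a parafilm membrane to roughly 20 adult male and female C. felis at about 37° C.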

Plutella xylostella = assay: Insecticidal testing against diamondback moth; format: in vivo; conditions: foliar, 144 h, concentration 100 ppm, cabbage leaf dip, third-stage larvae, after 6 days, read-out: pesticidal rate
Excerpt: Insecticidal Testing Against Diamondback Moth (Plutella xylostella)

O=C(Nc1cccc(C(=O)Nc2c(I)cc(C(F)(C(F)(F)F)C(F)(F)F)cc2OC(F)(F)F)c1F)c1ccc(F)cc1 [Compound 73]
pest or weed control at 0.2 µg/cm2, 0.2 µg/cm2 (Amblyomma americanum): 90%
pest or weed control at 1 µg/cm2, 1 µg/cm2 (Amblyomma americanum): 90%
pest or weed control at 100 ppm (Spodoptera litura): ≥ 70%
pest or weed control at 0.04 µg/cm2, 0.04 µg/cm2 (Ctenocephalides felis [1]): 95%
pest or weed control at 0.2 µg/cm2, 0.2 µg/cm2 (Ctenocephalides felis [1]): 95%
pest or weed control at 1 µg/cm2, 1 µg/cm2 (Ctenocephalides felis [1]): 95%
pest or weed control at 32 ng [2]: 100%
pest or weed control at 0.00016 mg [2]: 100%
pest or weed control at 0.0008 mg [2]: 100%
pest or weed control at 100 ppm (Laodelphax striatellus): ≥ 70%
pest or weed control at 0.04 µg/cm2, 0.04 µg/cm2 (Rhipicephalus sanguineus; dose 0.04 μg/cm^2, 48 h): 90%
pest or weed control at 0.2 µg/cm2, 0.2 µg/cm2 (Rhipicephalus sanguineus): 90%
pest or weed control at 1 µg/cm2, 1 µg/cm2 (Rhipicephalus sanguineus): 90%
pest or weed control at 0.2 µg/cm2, 0.2 µg/cm2 (Ixodes ricinus): 90%
pest or weed control at 1 µg/cm2, 1 µg/cm2 (Ixodes ricinus): 90%
pest or weed control at 5 µg/cm2, 5 µg/cm2 (Ixodes ricinus): 90%
pest or weed control at 0.04 µg/cm2, 0.04 µg/cm2 (Dermacentor variabilis): 90%
pest or weed control at 0.2 µg/cm2, 0.2 µg/cm2 (Dermacentor variabilis): 90%
pest or weed control at 1 µg/cm2, 1 µg/cm2 (Dermacentor variabilis): 90%
pest or weed control at 0.16 ppm (Ctenocephalides felis [3]): 95%
pest or weed control at 0.8 ppm (Ctenocephalides felis [3]): 95%
pest or weed control at 4 ppm (Ctenocephalides felis [3]): 95%
pest or weed control at 100 ppm (Plutella xylostella): ≥ 70%

O=C(Nc1cccc(C(=O)Nc2c(I)cc(C(F)(C(F)(F)F)C(F)(F)F)cc2C(F)(F)F)c1F)c1ccc(C(F)F)nc1 [Compound 85]
pest or weed control at 0.2 µg/cm2, 0.2 µg/cm2 (Amblyomma americanum): 90%
pest or weed control at 1 µg/cm2, 1 µg/cm2 (Amblyomma americanum): 90%
pest or weed control at 100 ppm (Spodoptera litura): ≥ 70%
pest or weed control at 0.04 µg/cm2, 0.04 µg/cm2 (Ctenocephalides felis [1]): 95%
pest or weed control at 0.2 µg/cm2, 0.2 µg/cm2 (Ctenocephalides felis [1]): 95%
pest or weed control at 1 µg/cm2, 1 µg/cm2 (Ctenocephalides felis [1]): 95%
pest or weed control at 32 ng [2]: 100%
pest or weed control at 0.00016 mg [2]: 100%
pest or weed control at 0.0008 mg [2]: 100%
pest or weed control at 100 ppm (Laodelphax striatellus): ≥ 70%
pest or weed control at 0.2 µg/cm2, 0.2 µg/cm2 (Rhipicephalus sanguineus): 90%
pest or weed control at 1 µg/cm2, 1 µg/cm2 (Rhipicephalus sanguineus): 90%
pest or weed control at 0.2 µg/cm2, 0.2 µg/cm2 (Ixodes ricinus): 90%
pest or weed control at 1 µg/cm2, 1 µg/cm2 (Ixodes ricinus): 90%
pest or weed control at 5 µg/cm2, 5 µg/cm2 (Ixodes ricinus): 90%
pest or weed control at 0.04 µg/cm2, 0.04 µg/cm2 (Dermacentor variabilis): 90%
pest or weed control at 0.2 µg/cm2, 0.2 µg/cm2 (Dermacentor variabilis): 90%
pest or weed control at 1 µg/cm2, 1 µg/cm2 (Dermacentor variabilis): 90%
pest or weed control at 0.0064 ppm (Ctenocephalides felis [3]; dose 0.0064 ppm in citrated cattle blood): 95%
pest or weed control at 0.032 ppm (Ctenocephalides felis [3]): 95%
pest or weed control at 0.16 ppm (Ctenocephalides felis [3]): 95%
pest or weed control at 0.8 ppm (Ctenocephalides felis [3]): 95%
pest or weed control at 4 ppm (Ctenocephalides felis [3]): 95%
pest or weed control at 100 ppm (Plutella xylostella): ≥ 70%

CN(C(=O)c1ccc(F)cc1)c1cccc(C(=O)Nc2c(Br)cc(C(F)(C(F)(F)F)C(F)(F)F)cc2OC(F)F)c1F [Compound 89]
pest or weed control at 1 µg/cm2, 1 µg/cm2 (Amblyomma americanum): 90%
pest or weed control at 100 ppm (Spodoptera litura): ≥ 70%
pest or weed control at 0.04 µg/cm2, 0.04 µg/cm2 (Ctenocephalides felis [1]): 95%
pest or weed control at 0.2 µg/cm2, 0.2 µg/cm2 (Ctenocephalides felis [1]): 95%
pest or weed control at 1 µg/cm2, 1 µg/cm2 (Ctenocephalides felis [1]): 95%
pest or weed control at 6.4 ng ([2]; dose 0.0064 μg/animal injected): 100%
pest or weed control at 32 ng [2]: 100%
pest or weed control at 0.00016 mg [2]: 100%
pest or weed control at 0.0008 mg [2]: 100%
pest or weed control at 100 ppm (Laodelphax striatellus): ≥ 70%
pest or weed control at 0.2 µg/cm2, 0.2 µg/cm2 (Rhipicephalus sanguineus): 90%
pest or weed control at 1 µg/cm2, 1 µg/cm2 (Rhipicephalus sanguineus): 90%
pest or weed control at 0.2 µg/cm2, 0.2 µg/cm2 (Ixodes ricinus): 90%
pest or weed control at 1 µg/cm2, 1 µg/cm2 (Ixodes ricinus): 90%
pest or weed control at 5 µg/cm2, 5 µg/cm2 (Ixodes ricinus): 90%
pest or weed control at 0.2 µg/cm2, 0.2 µg/cm2 (Dermacentor variabilis): 90%
pest or weed control at 1 µg/cm2, 1 µg/cm2 (Dermacentor variabilis): 90%
pest or weed control at 0.032 ppm (Ctenocephalides felis [3]): 95%
pest or weed control at 0.16 ppm (Ctenocephalides felis [3]): 95%
pest or weed control at 0.8 ppm (Ctenocephalides felis [3]): 95%
pest or weed control at 4 ppm (Ctenocephalides felis [3]): 95%
pest or weed control at 100 ppm (Plutella xylostella): ≥ 70%

O=C(Nc1cccc(C(=O)Nc2c(I)cc(C(F)(C(F)(F)F)C(F)(F)F)cc2OC(F)F)c1F)c1ccc(F)c(F)c1 [Compound 110]
pest or weed control at 0.04 µg/cm2, 0.04 µg/cm2 (Amblyomma americanum; dose 0.04 μg/cm^2, 48 h): 90%
pest or weed control at 0.2 µg/cm2, 0.2 µg/cm2 (Amblyomma americanum): 90%
pest or weed control at 1 µg/cm2, 1 µg/cm2 (Amblyomma americanum): 90%
pest or weed control at 100 ppm (Spodoptera litura): ≥ 70%
pest or weed control at 0.2 µg/cm2, 0.2 µg/cm2 (Ctenocephalides felis [1]): 95%
pest or weed control at 1 µg/cm2, 1 µg/cm2 (Ctenocephalides felis [1]): 95%
pest or weed control at 32 ng [2]: 100%
pest or weed control at 0.00016 mg [2]: 100%
pest or weed control at 0.0008 mg [2]: 100%
pest or weed control at 100 ppm (Laodelphax striatellus): ≥ 70%
pest or weed control at 0.2 µg/cm2, 0.2 µg/cm2 (Rhipicephalus sanguineus): 90%
pest or weed control at 1 µg/cm2, 1 µg/cm2 (Rhipicephalus sanguineus): 90%
pest or weed control at 0.2 µg/cm2, 0.2 µg/cm2 (Ixodes ricinus): 90%
pest or weed control at 1 µg/cm2, 1 µg/cm2 (Ixodes ricinus): 90%
pest or weed control at 5 µg/cm2, 5 µg/cm2 (Ixodes ricinus): 90%
pest or weed control at 0.2 µg/cm2, 0.2 µg/cm2 (Dermacentor variabilis): 90%
pest or weed control at 1 µg/cm2, 1 µg/cm2 (Dermacentor variabilis): 90%
pest or weed control at 0.032 ppm (Ctenocephalides felis [3]): 95%
pest or weed control at 0.16 ppm (Ctenocephalides felis [3]): 95%
pest or weed control at 0.8 ppm (Ctenocephalides felis [3]): 95%
pest or weed control at 4 ppm (Ctenocephalides felis [3]): 95%
pest or weed control at 100 ppm (Plutella xylostella): ≥ 70%
